For 15 compounds, T/C results are on record in PubChem BioAssay AID328 (DTP/NCI, 2004).

Several values for one entry are separate records, joined by “and”; a condition that tells them apart may be missing. Identical values can stand only once. Inconclusive results and toxic doses are left out.

The test system of this experiment is BDF1 mice, P388 leukemia ip, median survival T/C. The experiment is described as follows: NCI In Vivo Anticancer Drug Screen. Data for tumor model P388 Leukemia (intraperitoneal) in B6D2F1 (BDF1) mice. Particulars: endpoint: median survival time, higher = longer survival. The gist of the method:
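In tumour-bearing mice, survival after compound treatment is set against the vehicle group and given as a quotient.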

Setting [1] is: dose: 100.0 mg/kg/injection, schedule: Q01DX009 (ip), vehicle: saline.
Where [2] appears, read: dose: 200.0 mg/kg/injection, schedule: Q01DX009 (ip), vehicle: saline.
Setting [3] is: dose: 100.0 mg/kg/injection, schedule: Q01DX009 (ip), vehicle: Klucel (hydroxypropylcellulose) (HPC).
Where [4] appears, read: dose: 50.0 mg/kg/injection, schedule: Q01DX009 (ip), vehicle: saline with Tween-80.
Where [5] appears, read: dose: 100.0 mg/kg/injection, schedule: Q01DX009 (ip), vehicle: saline with Tween-80.
The mark [6] stands for this setting: dose: 200.0 mg/kg/injection, schedule: Q01DX009 (ip), vehicle: saline with Tween-80.
Where [7] appears, read: dose: 12.5 mg/kg/injection, schedule: Q04DX003 (ip), vehicle: saline with Tween-80.
[8] abbreviates: dose: 25.0 mg/kg/injection, schedule: Q04DX003 (ip), vehicle: saline with Tween-80.
[9] abbreviates: dose: 100.0 mg/kg/injection, schedule: Q04DX003 (ip), vehicle: saline.
Setting [10] is: dose: 200.0 mg/kg/injection, schedule: Q04DX003 (ip), vehicle: saline.
The mark [11] stands for this setting: dose: 400.0 mg/kg/injection, schedule: Q01DX009 (ip), vehicle: saline.
Setting [12] is: dose: 100.0 mg/kg/injection, schedule: Q04DX003 (ip), vehicle: Klucel (hydroxypropylcellulose) (HPC).
The mark [13] stands for this setting: dose: 200.0 mg/kg/injection, schedule: Q04DX003 (ip), vehicle: Klucel (hydroxypropylcellulose) (HPC).
[14] abbreviates: dose: 400.0 mg/kg/injection, schedule: Q04DX003 (ip), vehicle: Klucel (hydroxypropylcellulose) (HPC).

On to `O=C1NC(=O)C(c2ccccc2)(c2ccccc2)N1CCS`, for which the T/C runs as follows: (dose: 12.5 mg/kg/injection, schedule: Q01DX009 (ip), vehicle: saline) 96 % of control and 104 % of control; (dose: 25.0 mg/kg/injection, schedule: Q01DX009 (ip), vehicle: saline) 99 % of control and 104 % of control; (dose: 50.0 mg/kg/injection, schedule: Q01DX009 (ip), vehicle: saline) 93 % of control; under setting [1], 89 % of control and 99 % of control; under setting [2], 112 % of control and 113 % of control.

In the case of `Cc1ccc(/C(C#N)=C2C=C(Br)/C(=N\O)C=C/2Cl)cc1`, the T/C is, setting by setting: (dose: 28.12 mg/kg/injection, schedule: Q04DX003 (ip), vehicle: Klucel (hydroxypropylcellulose) (HPC)) 100 % of control; (dose: 56.25 mg/kg/injection, schedule: Q01DX009 (ip), vehicle: Klucel (hydroxypropylcellulose) (HPC)) 115 % of control; (dose: 56.25 mg/kg/injection, schedule: Q04DX003 (ip), vehicle: Klucel (hydroxypropylcellulose) (HPC)) 100 % of control; (dose: 100.0 mg/kg/injection, schedule: Q01DX001 (ip), vehicle: Klucel (hydroxypropylcellulose) (HPC)) 90 % of control; (dose: 112.5 mg/kg/injection, schedule: Q01DX009 (ip), vehicle: Klucel (hydroxypropylcellulose) (HPC)) 110 % of control; (dose: 112.5 mg/kg/injection, schedule: Q04DX003 (ip), vehicle: Klucel (hydroxypropylcellulose) (HPC)) 100 % of control. Also, the T/C was 100 % of control (dose: 150.0 mg/kg/injection, schedule: Q01DX009 (ip), vehicle: Klucel (hydroxypropylcellulose) (HPC)); 105 % of control (dose: 170.0 mg/kg/injection, schedule: Q04DX003 (ip), vehicle: Klucel (hydroxypropylcellulose) (HPC)); 104 % of control (dose: 200.0 mg/kg/injection, schedule: Q01DX001 (ip), vehicle: Klucel (hydroxypropylcellulose) (HPC)); 105 % of control (dose: 225.0 mg/kg/injection, schedule: Q01DX009 (ip), vehicle: Klucel (hydroxypropylcellulose) (HPC)); 110 % of control (dose: 255.0 mg/kg/injection, schedule: Q04DX003 (ip), vehicle: Klucel (hydroxypropylcellulose) (HPC)); 100 % of control (dose: 335.0 mg/kg/injection, schedule: Q01DX009 (ip), vehicle: Klucel (hydroxypropylcellulose) (HPC)). Besides, the T/C (dose: 380.0 mg/kg/injection, schedule: Q04DX003 (ip), vehicle: Klucel (hydroxypropylcellulose) (HPC)) was 100 % of control.

Consider `O=S(=O)(Nc1ccc(NS(=O)(=O)c2ccccc2)cc1)c1ccccc1`, for which the T/C was 100 % of control (dose: 3.12 mg/kg/injection, schedule: Q01DX009 (ip), vehicle: Klucel (hydroxypropylcellulose) (HPC)); 100 % of control (dose: 6.25 mg/kg/injection, schedule: Q01DX009 (ip), vehicle: Klucel (hydroxypropylcellulose) (HPC)); 95 % of control (dose: 12.5 mg/kg/injection, schedule: Q01DX009 (ip), vehicle: Klucel (hydroxypropylcellulose) (HPC)); 96 % of control under setting [3].

Consider `Cn1cnc([N+](=O)[O-])c1Sc1nc(N)nc2c1ncn2C1OC(CO)C(O)C1O` (stereo unspecified), for which the T/C was 163 % of control (dose: 7.0 mg/kg/injection, schedule: Q04DX003 (ip), vehicle: saline); 120 % of control (dose: 7.03 mg/kg/injection, schedule: Q01DX009 (ip), vehicle: saline); 163 % of control (dose: 9.2 mg/kg/injection, schedule: Q01DX009 (ip), vehicle: saline); 163 % of control (dose: 14.06 mg/kg/injection, schedule: Q01DX009 (ip), vehicle: saline); 168 % of control and 172 % of control (dose: 16.0 mg/kg/injection, schedule: Q04DX003 (ip), vehicle: saline); 95 % of control (dose: 21.0 mg/kg/injection, schedule: Q01DX009 (ip), vehicle: saline). Besides, the T/C (dose: 25.0 mg/kg/injection, schedule: Q04DX003 (ip), vehicle: saline) was 161 % of control and 168 % of control; the T/C (dose: 56.25 mg/kg/injection, schedule: Q01DX009 (ip), vehicle: saline) is 100 % of control; the T/C (dose: 150.0 mg/kg/injection, schedule: Q04DX003 (ip), vehicle: saline) was 104 % of control and 113 % of control; the T/C (dose: 225.0 mg/kg/injection, schedule: Q04DX003 (ip), vehicle: saline) is 109 % of control; the T/C (dose: 335.0 mg/kg/injection, schedule: Q04DX003 (ip), vehicle: saline) is 109 % of control.

Regarding `S=c1[nH]nc2ccccn12`, the T/C under setting [4] was 102 % of control, the T/C under setting [5] is 100 % of control and the T/C under setting [6] was 102 % of control.

Consider `CN(C)N=C(Cc1ccccc1)Cc1ccccc1`, for which the T/C is 108 % of control under setting [7]; 108 % of control under setting [8]; 104 % of control (dose: 50.0 mg/kg/injection, schedule: Q04DX003 (ip), vehicle: saline with Tween-80).

For `COc1ccc(/C=C(/C#N)c2ccccc2)cc1`, the T/C (dose: 25.0 mg/kg/injection, schedule: Q01DX009 (ip), vehicle: saline with Tween-80) was 93 % of control; the T/C under setting [4] was 97 % of control; the T/C under setting [5] was 103 % of control; the T/C under setting [6] was 111 % of control.

On to `C=C1C(=O)O[C@H]2C/C(C)=C/CC/C(CO)=C/[C@@H](O)[C@H]12`, for which the T/C (dose: 5.5 mg/kg/injection, schedule: Q01DX009 (ip), vehicle: alcohol) was 110 % of control; the T/C (dose: 33.0 mg/kg/injection, schedule: Q01DX009 (ip), vehicle: alcohol) is 120 % of control; the T/C (dose: 50.0 mg/kg/injection, schedule: Q01DX009 (ip), vehicle: alcohol) is 95 % of control.

Regarding `C#CC1(OCC2CO2)CCCCC1` (stereo unspecified), the T/C was 92 % of control under setting [1]; 110 % of control under setting [9]; 103 % of control under setting [2]; 110 % of control under setting [10]; 92 % of control under setting [11].

As for `CCCCCCCCCCCCCCCC(=O)N(CC#N)CC#N`, the T/C was 100 % of control under setting [12], 100 % of control under setting [13] and 90 % of control under setting [14].

With `O=[N+]([O-])c1ccccc1S(=O)(=O)Oc1ccccc1`, the T/C under setting [12] was 100 % of control, the T/C under setting [13] is 100 % of control and the T/C under setting [14] is 100 % of control.

In the case of `COC(=O)[C@@H]1[C@H](O)[C@H](C)[C@H](O)[C@H](C)/C=C\C=C(C)C(=O)Nc2c(C)c(OC(C)=O)c3c(c2O)C(=O)C(C)=C2OCOC(=C23)C(C)=C[C@@](C)(O)[C@H](O)[C@@H](C)[C@H]1OC(C)=O`, the T/C (dose: 50.0 mg/kg/injection, schedule: Q01DX009 (ip), vehicle: saline + alcohol) is 95 % of control; the T/C under setting [3] is 106 % of control; the T/C (dose: 100.0 mg/kg/injection, schedule: Q01DX009 (ip), vehicle: saline + alcohol) is 99 % of control; the T/C (dose: 200.0 mg/kg/injection, schedule: Q01DX009 (ip), vehicle: Klucel (hydroxypropylcellulose) (HPC)) was 116 % of control and 123 % of control; the T/C (dose: 200.0 mg/kg/injection, schedule: Q01DX009 (ip), vehicle: saline + alcohol) was 95 % of control; the T/C (dose: 400.0 mg/kg/injection, schedule: Q01DX009 (ip), vehicle: Klucel (hydroxypropylcellulose) (HPC)) was 115 % of control. Moreover, the T/C (dose: 400.0 mg/kg/injection, schedule: Q01DX009 (ip), vehicle: saline + alcohol) is 100 % of control.

For the compound `CCOC(=O)CSC(=S)SCC(=O)OCC`, the T/C under setting [1] is 100 % of control; the T/C under setting [9] is 90 % of control; the T/C under setting [2] was 105 % of control; the T/C under setting [10] was 100 % of control; the T/C under setting [11] was 100 % of control; the T/C (dose: 400.0 mg/kg/injection, schedule: Q04DX003 (ip), vehicle: saline) was 100 % of control.

For `CC1=CC(=O)NC1O` (stereo unspecified), the T/C (dose: 2.5 mg/kg/injection, schedule: Q01DX010 (ip), vehicle: saline) was 87 % of control; the T/C (dose: 10.0 mg/kg/injection, schedule: Q01DX010 (ip), vehicle: saline) is 91 % of control; the T/C (dose: 15.0 mg/kg/injection, schedule: Q01DX010 (ip), vehicle: saline) is 100 % of control.

Consider `C/C(=N\NC(=S)N1CCC(O)CC1)c1ccccn1`, for which the T/C reads like this: (dose: 6.25 mg/kg/injection, schedule: Q04DX003 (ip), vehicle: saline with Tween-80) 104 % of control; under setting [7], 108 % of control; under setting [8], 113 % of control.
